Values after ≈ are worked out from the molar mass of the structure shown. Bounds are passed on as bounds.

The first test has as its system Pasteurella multocida. As to the kind of experiment: Tested for antibacterial activity expressed as minimum inhibitory concentration against Pasteurella multocida. It is filed as functional.
In turn, `C=CCOc1ccc(/C=C(\C)C(=O)N[C@@H]2[C@H](O)[C@@H](O)[C@H]3OCO[C@H]3[C@@H]2O)cc1O` gave an MIC of 3.13 µg/mL (≈ 7.68 µM).

`C=CCOc1ccc(/C=C(\C)C(=O)N[C@H]2C(O)[C@H](n3cnc4c(N(C)C)ncnc43)O[C@@H]2CO)cc1O` (some centres not stated) registered an MIC of 6.25 µg/mL (≈ 12.2 µM).

`C=CCOc1ccc(/C=C(\C)C(=O)N[C@H]2[C@@H](O)[C@H](OC)O[C@@H]2CO)cc1O` yielded a minimum inhibitory concentration (MIC) above 200 µg/mL.

The compound `C/C(=C\c1ccc(O[C@@H]2O[C@H]([C@H](C)O)[C@@H](O)[C@@H]2O)c(O)c1)C(=O)N[C@@H]1[C@H](O)[C@@H](O)[C@H]2OCO[C@H]2[C@@H]1O` gave a minimum inhibitory concentration (MIC) of 6.25 µg/mL (≈ 12.2 µM).

With `COc1ccc(/C=C(\C)C(=O)N[C@H]2C(O)[C@H](n3cnc4c(N(C)C)ncnc43)O[C@@H]2CO)cc1` (some centres not stated), the MIC worked out at 200 µg/mL (≈ 427 µM).

`C=CCOc1ccc(/C=C(\C)C(=O)N[C@H]2C(O)[C@H](n3cnc4c(N(C)C)ncnc43)O[C@@H]2CO)cc1` (some centres not stated) registered an MIC above 200 µg/mL.

Compound `COc1ccc(/C=C(\C)C(=O)N[C@@H]2[C@H](O)[C@@H](O)[C@H]3OCO[C@H]3[C@@H]2O)cc1` yielded an MIC above 200 µg/mL.

In turn, `C/C(=C\c1ccc(O[C@@H]2O[C@H]([C@H](C)O)[C@@H](O)[C@@H]2O)c(O)c1)C(=O)N[C@H]1C(O)[C@H](n2cnc3c(N(C)C)ncnc32)O[C@@H]1CO` (some centres not stated) displayed an MIC of 200 µg/mL (≈ 324 µM).

On to `CO/C(CO[C@H]1O[C@H](C)[C@@H](OC)[C@H](OC)[C@@H]1O)=C1\O[C@@H](Oc2ccc(/C=C(\C)C(=O)NC3C(O)[C@H](n4cnc5c(N(C)C)ncnc54)O[C@@H]3CO)cc2)[C@@H](O)[C@@H]1O` (some centres not stated), for which 3.13 µg/mL (≈ 3.9 µM) was the least that counted as inhibitory (MIC).

Consider `C=CCOc1ccc(/C=C(\C)C(=O)N[C@@H]2[C@H](O)[C@@H](O)[C@H]3OCO[C@H]3[C@@H]2O)cc1`, for which the lowest concentration to inhibit growth (MIC) was 50 µg/mL (≈ 128 µM).

Compound `CC(=O)[C@H]1O[C@@H](Oc2ccc(/C=C(\C)C(=O)N[C@@H]3[C@H](O)[C@@H](O)[C@H]4OCO[C@H]4[C@@H]3O)cc2O)[C@@H](O)[C@@H]1O` [HYGROMYCIN A] displayed a minimal inhibitory concentration (MIC) of 0.78 µg/mL (≈ 1.52 µM).

The test system of a further test is Brachyspira hyodysenteriae. In words: Tested for antibacterial activity expressed as minimum inhibitory concentration against Serpulina (Treponema) hyodysenteriae. It is filed as functional.
As for `C=CCOc1ccc(/C=C(\C)C(=O)N[C@@H]2[C@H](O)[C@@H](O)[C@H]3OCO[C@H]3[C@@H]2O)cc1O`, the MIC stood at 0.78 µg/mL (≈ 1.91 µM).

`C=CCOc1ccc(/C=C(\C)C(=O)N[C@H]2C(O)[C@H](n3cnc4c(N(C)C)ncnc43)O[C@@H]2CO)cc1O` (some centres not stated) showed an MIC of 1.56 µg/mL (≈ 3.06 µM).

As to `C=CCOc1ccc(/C=C(\C)C(=O)N[C@H]2[C@@H](O)[C@H](OC)O[C@@H]2CO)cc1O`, the minimum inhibitory concentration (MIC) was above 200 µg/mL.

Compound `C/C(=C\c1ccc(O[C@@H]2O[C@H]([C@H](C)O)[C@@H](O)[C@@H]2O)c(O)c1)C(=O)N[C@@H]1[C@H](O)[C@@H](O)[C@H]2OCO[C@H]2[C@@H]1O` yielded an MIC of 3.13 µg/mL (≈ 6.1 µM).

Regarding `COc1ccc(/C=C(\C)C(=O)N[C@H]2C(O)[C@H](n3cnc4c(N(C)C)ncnc43)O[C@@H]2CO)cc1` (some centres not stated), it took 50 µg/mL (≈ 107 µM) to inhibit growth (MIC).

With `C=CCOc1ccc(/C=C(\C)C(=O)N[C@H]2C(O)[C@H](n3cnc4c(N(C)C)ncnc43)O[C@@H]2CO)cc1` (some centres not stated), the MIC was 50 µg/mL (≈ 101 µM).

`COc1ccc(/C=C(\C)C(=O)N[C@@H]2[C@H](O)[C@@H](O)[C@H]3OCO[C@H]3[C@@H]2O)cc1` came in with an MIC above 200 µg/mL.

Compound `C/C(=C\c1ccc(O[C@@H]2O[C@H]([C@H](C)O)[C@@H](O)[C@@H]2O)c(O)c1)C(=O)N[C@H]1C(O)[C@H](n2cnc3c(N(C)C)ncnc32)O[C@@H]1CO` (some centres not stated) registered an MIC of 200 µg/mL (≈ 324 µM).

`CO/C(CO[C@H]1O[C@H](C)[C@@H](OC)[C@H](OC)[C@@H]1O)=C1\O[C@@H](Oc2ccc(/C=C(\C)C(=O)NC3C(O)[C@H](n4cnc5c(N(C)C)ncnc54)O[C@@H]3CO)cc2)[C@@H](O)[C@@H]1O` (some centres not stated) came in with an MIC of 3.13 µg/mL (≈ 3.9 µM).

For `C=CCOc1ccc(/C=C(\C)C(=O)N[C@@H]2[C@H](O)[C@@H](O)[C@H]3OCO[C@H]3[C@@H]2O)cc1`, the minimum inhibitory concentration (MIC) was determined as 6.25 µg/mL (≈ 16 µM).

With `CC(=O)[C@H]1O[C@@H](Oc2ccc(/C=C(\C)C(=O)N[C@@H]3[C@H](O)[C@@H](O)[C@H]4OCO[C@H]4[C@@H]3O)cc2O)[C@@H](O)[C@@H]1O` [HYGROMYCIN A], the MIC was found to be 0.78 µg/mL (≈ 1.52 µM).

In general, MIC refers to the smallest concentration in the dilution series that meets the test's criterion for growth inhibition.

These data come from ChEMBL document CHEMBL1149925, “Application of hygromycin a structure activity relationships to the antibiotic A201A” (1993).
